According to ChEMBL document CHEMBL3813626, “Synthesis, antimalarial properties and 2D-QSAR studies of novel triazole-quinine conjugates” (Bioorg Med Chem, 2016):

The molecules below were run on Plasmodium falciparum (assay: Antimalarial activity against blood stage Plasmodium falciparum 3D7 infected in human erythrocytes assessed as reduction in parasitemia after 72 hrs by SYBR green I fluorescence-based method). Conditions: 3D7, 72 h.
Assay type: functional, organism-based

| SMILES | IC50 |
| --- | --- |
| C=C[C@H]1CN2CC[C@H]1C[C@@H]2[C@H](OCCc1cn(-c2ccc(Cl)cc2)nn1)c1ccnc2ccc(OC)cc12 | 0.041 µM |
| C=C[C@H]1CN2CC[C@H]1C[C@@H]2[C@H](OCc1cn(-c2ccc(Cl)cc2)nn1)c1ccnc2ccc(OC)cc12 | 0.9 µM |
| C=C[C@H]1CN2CC[C@H]1C[C@@H]2[C@H](OCc1cn([C@H](C(=O)N(CC)CC)C(C)C)nn1)c1ccnc2ccc(OC)cc12 | 0.88 µM |
| C=C[C@H]1CN2CC[C@H]1C[C@@H]2[C@H](OCc1cn(Cn2nnc3ccccc32)nn1)c1ccnc2ccc(OC)cc12 | 4.8 µM |
| C=C[C@H]1CN2CC[C@H]1C[C@@H]2[C@H](OCc1cn(CC(OC)OC)nn1)c1ccnc2ccc(OC)cc12 | 3.4 µM |
| C=C[C@H]1CN2CC[C@H]1C[C@@H]2[C@H](OCCc1cn(CCCc2ccccc2)nn1)c1ccnc2ccc(OC)cc12 | 0.027 µM |
| C=C[C@H]1CN2CC[C@H]1C[C@@H]2[C@H](OCc1cn([C@@H](Cc2ccccc2)C(=O)O)nn1)c1ccnc2ccc(OC)cc12 | 7.7 µM |
| C=C[C@H]1CN2CC[C@H]1C[C@@H]2[C@H](OCCc1cn(Cc2ccccc2)nn1)c1ccnc2ccc(OC)cc12 | 0.03 µM |
| C=C[C@H]1CN2CC[C@H]1C[C@@H]2[C@H](OCc1cn(/C=C/n2nnc3ccccc32)nn1)c1ccnc2ccc(OC)cc12 | 1.5 µM |
| C=C[C@H]1CN2CC[C@H]1C[C@@H]2[C@H](OCCc1cn(-c2ccccc2[N+](=O)[O-])nn1)c1ccnc2ccc(OC)cc12 | 3.3 µM |
| C=C[C@H]1CN2CC[C@H]1C[C@@H]2[C@H](OCc1cn(CC(=O)N[C@@H](CC(C)C)C(=O)O)nn1)c1ccnc2ccc(OC)cc12 | 12 µM |
| C=C[C@H]1CN2CC[C@H]1C[C@@H]2[C@H](OCc1cn([C@@H](C)C(=O)O)nn1)c1ccnc2ccc(OC)cc12 | 41 µM |
| C=C[C@H]1CN2CC[C@H]1C[C@@H]2[C@H](OCc1cn([C@H](C(=O)O)C(C)C)nn1)c1ccnc2ccc(OC)cc12 | 20 µM |
| C=C[C@H]1CN2CC[C@H]1C[C@@H]2[C@H](OCc1cn([C@@H](CC(C)C)C(=O)O)nn1)c1ccnc2ccc(OC)cc12 | 31 µM |
| C=C[C@H]1CN2CC[C@H]1C[C@@H]2[C@H](OCc1cn(-c2ccccc2Cl)nn1)c1ccnc2ccc(OC)cc12 | 20 µM |
| C=C[C@H]1CN2CC[C@H]1C[C@@H]2[C@H](OCCc1cn(-c2ccccc2Cl)nn1)c1ccnc2ccc(OC)cc12 | 0.037 µM |

| SMILES | IC50 |
| --- | --- |
| C=C[C@H]1CN2CC[C@H]1C[C@@H]2[C@H](OCc1cn(-c2ccccc2C#N)nn1)c1ccnc2ccc(OC)cc12 | 1 µM |
| C=C[C@H]1CN2CC[C@H]1C[C@@H]2[C@H](OCc1cn([C@@H](Cc2c[nH]c3ccccc23)C(=O)O)nn1)c1ccnc2ccc(OC)cc12 | 8.4 µM |
| C=C[C@H]1CN2CC[C@H]1C[C@@H]2[C@H](OCc1cn(-c2ccc([N+](=O)[O-])cc2)nn1)c1ccnc2ccc(OC)cc12 | 0.64 µM |
| C=C[C@H]1CN2CC[C@H]1C[C@@H]2[C@H](OCc1cn(-c2cccc(C#N)c2)nn1)c1ccnc2ccc(OC)cc12 | 2 µM |
| C=C[C@H]1CN2CC[C@H]1C[C@@H]2[C@H](OCc1cn(-c2ccccc2[N+](=O)[O-])nn1)c1ccnc2ccc(OC)cc12 | 1.3 µM |
| C=C[C@H]1CN2CC[C@H]1C[C@@H]2[C@H](OCCc1cn(-c2ccc(C)cc2)nn1)c1ccnc2ccc(OC)cc12 | 0.04 µM |
| C=C[C@H]1CN2CC[C@H]1C[C@@H]2[C@H](OCc1cn(-c2ccccn2)nn1)c1ccnc2ccc(OC)cc12 | 5.7 µM |
| C=C[C@H]1CN2CC[C@H]1C[C@@H]2[C@H](OCc1cn(CC(=O)N[C@@H](Cc2ccccc2)C(=O)O)nn1)c1ccnc2ccc(OC)cc12 | 5.5 µM |
| C=C[C@H]1CN2CC[C@H]1C[C@@H]2[C@H](OCc1cn(Cc2ccc(C)cc2)nn1)c1ccnc2ccc(OC)cc12 | 0.45 µM |
| C=C[C@H]1CN2CC[C@H]1C[C@@H]2[C@H](OCc1cn(Cc2ccc([N+](=O)[O-])cc2)nn1)c1ccnc2ccc(OC)cc12 | 1.2 µM |
| C=C[C@H]1CN2CC[C@H]1C[C@@H]2[C@H](OCCc1cn(-c2ccc(OC)cc2)nn1)c1ccnc2ccc(OC)cc12 | 0.043 µM |
| C=C[C@H]1CN2CC[C@H]1C[C@@H]2[C@H](OCc1cn(Cc2ccccc2)nn1)c1ccnc2ccc(OC)cc12 | 0.79 µM |
| C=C[C@H]1CN2CC[C@H]1C[C@H]2[C@H](O)c1ccnc2ccc(OC)cc12 [QUININE] | 0.058 µM |
| C=C[C@H]1CN2CC[C@H]1C[C@@H]2[C@H](OCCc1cn(-c2ccc([N+](=O)[O-])cc2)nn1)c1ccnc2ccc(OC)cc12 | 0.345 µM |
| C=C[C@H]1CN2CC[C@H]1C[C@@H]2[C@H](OCc1cn(CCCc2ccccc2)nn1)c1ccnc2ccc(OC)cc12 | 0.89 µM |
| C=C[C@H]1CN2CC[C@H]1C[C@@H]2[C@H](OCc1cn(-c2ccc(OC)cc2)nn1)c1ccnc2ccc(OC)cc12 | 2.2 µM |
